Where two headings read alike, the source gives them in different places.

The values below come from patent publication US20120035079A1, “GENOTOXICITY TESTING” (priority 2009, published 2012).

Series [1] deals with human GADD45α gene promoter and regulatory element linked to Gaussia luciferase (GD532-GLuc) in TK6 cells. In words: GLuc genotoxicity assay: GLuc-T01 cells (TK6 with pEP-GD532-GLuc), 48 hour endpoint, without S9. The method, then:
The assay has the following steps, as further described below: (1) preparing a microplate for use in an assay; (2) conducting the assay in the microplates; (3) collecting and analysing the data; and (4) making a judgment on genome damage and the consequences.
The assay is performed using a microplate reader capable of luminescence and absorbance readings, equipped with injectors capable of single well additions.
Using the standard dilution protocol described here, all concentrations are halved in the microplate well when a sample volume of 75 μl is combined with 75 μl of cell culture. All standard and test chemicals and reagents should be prepared fresh shortly before the assay is performed.
An initial concentration of 2 mM or 1 mg/ml (whichever is lowest) is recommended (equating to 1 mM or 500 μg/ml of test compound on the microplate). It is desirable that the test compound is fully soluble at the top concentration tested. A minimum of 250 μl of each test compound is required per plate. […] If the compound precipitates from solution when the DMSO standard is added to water, the original DMSO stock standard can be diluted further with 100% DMSO. The 20 μl+980 μl water dilution step is then repeated to produce a fresh test standard.
Standard cell culture methods are used to prepare GLuc-TO1 cells for use in the assay. […] Cells are grown in routine culture medium:
The following standard protocol may be followed. […] To achieve this, 150 microlitres of the test chemical solution are put into a microplate well. […] This produces 9 serial dilutions of 75 microlitres each.
75 μl of GLuc-T01 cells in Assay Medium (GS-HC-AM) as described above are then added to each well as appropriate.
The following controls are included in the microplate: • a. Blank well. • b. Test compound/sample alone. • c. Assay medium alone. • d. Control compound with cells.
Once finished, the microplates are covered with a breathable membrane. […] Plates should be incubated and analysed after 48 hours +/−2 hours.
Plates are first read for absorbance in each well, at a wavelength of ˜620 nm. […] An example of a suitable reader and injector system is a Tecan Infinite F500
Following the 48 hour incubation, luminescence and absorbance data are collected from the microplates. A microplate reader combining luminescence and absorbance functionality is used; by way of example, this reader may be a Tecan Infinite F500 (Tecan UK Ltd.). Luminescence data are collected with an integration time of 3 seconds after injection of the substrate and shaking of the microplate (within the reader). Optical absorbance is measured through a 600 nm or 620 nm filter. These luminescence and absorbance data are transported into a Microsoft Excel spreadsheet, and converted to graphical data. […] Luminescence data are divided by absorbance data to give ‘brightness units’, the measure of average GLuc induction per cell. […] In this way, one can distinguish between a small number of highly luminescent cells and a large number of weakly luminescent cells. The decision (see below), on whether or not a compound is classified as being genotoxic is generated automatically within the software.
The cytotoxicity threshold is set at 80% of the cell density reached by the untreated control cells.
Anomalous brightness data is generated when the toxicity leads to a final cell density less than 30% that of the blank. Genotoxicity data is not calculated above this toxicity threshold.
A series of genotoxicity assays were performed using a TK6 cell line having the GD532-GLuc expression cassette (a “GLuc assay”). The assays were performed using the experimental protocol provided in a later example.

Series [2] has as its system GADD45α-FLuc expression cassette (GD532-L) in TK6 cells. In words: FLuc genotoxicity assay: TK6 cells with GADD45α-FLuc (GD532-L) expression cassette. The note with it: for detection as genotoxic with FLuc at the 48 hour endpoint: FLuc measured 8-48 hours after treatment, FIG. 4. The source says: The reagents for the FLuc assay were originally taken from the article Wettey F R, Jackson A P. Luciferase Reporter Assay. In: Reviews and Protocols in DT40 Research. […] The reagents and their concentrations are listed below. The pH of both mixes is adjusted to pH 7.8 in order to maximise the light output from luciferase.
It was decided to directly lyse the TK6 cells in the GreenScreen HC assay medium as to pellet and wash the cells would add additional steps to the protocol and therefore increase variability into the data. […] The solution of this combined lysis and assay mix (L&A buffer) is shown below.
The final concentration listed above is the concentration of the reagents after the L&A buffer has been combined with the GreenScreen HC assay media. The final concentration of the reagents is fixed and based on the information from the Wettey and Jackson protocol. The FLuc assay as it is currently performed relies on the addition of 40 μl of L&A buffer to 120 μl of GreenScreen HC assay buffer. Therefore, the initial concentration of the reagents in the L&A buffer has to be four times greater than the desired final concentration. The L&A buffer should be pH 8.0 as when the L&A buffer is combined with the GreenScreen HC assay medium (pH 7.2) this give a final pH of ˜7.8.
The preparation of pEP-GD532-GLuc is described in the accompanying examples. Using a similar strategy the inventors also prepared plasmid pEP-GD532-L, in which FLuc is used as the reporter protein. TK6 cells are transfected with a plasmid having a GD532-L or GD532-GLuc expression cassette by electroporation and clones bearing the reporter plasmids are selected.
The inventors wished to determine which of the GLuc and FLuc reporter proteins were most suitable for use in a genotoxicity assay. To determine this, they performed a series of experiments in which cells having the GD532-L or GD532-GLuc expression cassette were exposed to a test compound, and the activity of GLuc and FLuc measured and compared to the standard GADD45α-GFP expression cassette.
FLuc cells were combined with a several known genotoxins and non-genotoxins. FLuc expression was measured at 8, 16, 24, 32, 40 and 48 hours after treatment.

The test system of series [3] is GD532-GLuc reporter in GLuc-T01 cells with S9 liver extract. In words: S9 metabolic activation GLuc assay with thiazole orange cell number estimation. Conditions: TO cell number estimation, threshold 1.5, FIG. 7B.
Procedure: In an S9-incorporating assay, GLuc-T01 cells are exposed to the test compound in the presence of the S9 extract in a mixture with enzyme co-factors (for example, glucose-6-phosphate (2.5 mM) and β-nicotinamide adenine dinucleotide phosphate (0.5 mM)). The S9 extract is normally used at a final concentration of 1% (v/v) in the assay microplate. […] The conditions of an S9-incorporating assay (for example, time of exposure and type of S9—animal species, chemical induction of hepatic enzymes etc.) may be varied according to experimental requirements.
The cell stain used in the adapted protocol is thiazole orange (TO) which is a cyanine dye that binds to nucleic acids. The binding of TO to DNA and RNA greatly enhances its fluorescence intensity, allowing for its detection without the need to wash away background, unbound TO.
The method requires GLuc-T01 cells to be lysed to allow access to the DNA of all cells present in the microplate well.
In the microplate, the final concentration of TO is 15 μM and for Triton-X100 it is 1% (v/v).
Where the assay includes S9 liver extracts, the genotoxic threshold is set at a relative GLuc induction of 1.5 (i.e. an 50% increase).
Series [4] deals with GADD45α-GFP expression cassette in TK6 cells. Kind of series: GADD45α-GFP reporter assay (GreenScreen HC). The note with it: FIG. 3, 24 hour timeframe. It counts as cell-based, human. The method, then:
Studying FIG. 3 allows for the construction of a number of hypotheses regarding the stability of the reporter proteins and how this will affect the GreenScreen HC assay. The FLuc protein has been reported to have a half-life within cells of ˜3 hours. In comparison, GFP has been reported to have a half-life within cells of ˜26 hours. In this respect GFP can be considered to give more of a cumulative measure of GADD45α induction whilst FLuc will report only on recent GADD45 induction.
In general terms: Reporter assays use an easily measured gene product as a stand-in for the process of interest.

Setting [5] is: TK6 with GD532-GLuc, 48 hour endpoint.
[6] abbreviates: lowest test compound concentration that produces a relative GLuc induction greater than the 1.8 threshold.

For the molecule `Nc1ncn([C@@H]2O[C@H](CO)[C@@H](O)[C@H]2O)c(=O)n1` [5-Azacytidine], the “GLuc Genotox Result” value in series [1] was “+++”. Also, the “GLuc Genotox LEC” value in series [1] (human, 48 h) came to 0.38 µg/mL. Consider `O=c1[nH]cc(F)c(=O)[nH]1` [5-Fluorouracul], for which the “genotoxicity outcome in the GLuc assay (in words)” value (from here on “genotoxicity outcome”) in series [1] (setting [5]) was “correctly identified”. In addition, in series [1] (setting [6]), the “GLuc Genotox LEC” value is 0.63 µg/mL. Besides, in series [2], the “detection as genotoxic with FLuc at the 48 hour endpoint” value is on record as “would not have been detected as genotoxic”. Turning to `Nc1cc2c3ccccc3ccc2c2ccccc12` [6-Aminochrysene], the “detection of pro-genotoxin in S9 GLuc assay” value in series [3] was “detected”.

Turning to `C[C@@]1(CO)[C@H](O)CC[C@@]2(C)[C@H]1CC[C@H]1C[C@@H]3C[C@@]12CC[C@]3(O)CO` [Aphidicolin], the “GLuc Genotox LEC” value in series [1] (setting [6]) is 0.13 µg/mL.

With `CCCCNC(=O)n1c(NC(=O)OC)nc2ccccc21` [Benomyl], the “GLuc Genotox Result” value in series [1] is reported as “+++”. Further, the “GLuc Genotox LEC” value in series [1] (human, 48 h) came out at 1.81 µg/mL. With `CC[C@@]1(O)C(=O)OCc2c1cc1n(c2=O)Cc2cc3ccccc3nc2-1` [Camptothecin], the “GLuc Genotox LEC” value in series [1] (setting [6]) amounted to 0.08 µg/mL. For `COc1cc2c(c(OC)c1OC)-c1ccc(OC)c(=O)cc1[C@@H](NC(C)=O)CC2` [Colchicine], the “genotoxicity outcome” value in series [1] (setting [5]) was “correctly identified”. The “detection as genotoxic with FLuc at the 48 hour endpoint” value in series [2] is on record as “would not have been detected as genotoxic”.

For `COc1cc([C@@H]2c3cc4c(cc3[C@@H](O[C@@H]3O[C@@H]5CO[C@@H](C)O[C@H]5[C@H](O)[C@H]3O)[C@H]3COC(=O)[C@H]23)OCO4)cc(OC)c1O` [Etoposide], in series [1], the “GLuc Genotox Result” value is listed as “+++” and the “genotoxicity outcome” value is listed as “positive”.

With `COC1=CC(=O)C[C@@H](C)[C@]12Oc1c(Cl)c(OC)cc(OC)c1C2=O` [Griseofulvin], the “GLuc Genotox Result” value in series [1] is “+++”.

Consider `OO` [Hydrogen Peroxide], for which the “GLuc Genotox Result” value in series [1] is “+++”. Moreover, the “GLuc Genotox LEC” value in series [1] (human, 48 h) came out at 5.00 µg/mL. Consider `NC(=O)NO` [Hydroxyurea], for which the “GLuc Genotox LEC” value in series [1] (human, 48 h) amounted to 4.75 µg/mL. As to `COS(C)(=O)=O` [Methyl methanesulfonate], the “GLuc Genotox Result” value in series [1] is on record as “+++”. For the same molecule, the “GLuc Genotox LEC” value in series [1] (human, 48 h) turned out to be 6.25 µg/mL. For `CN(N=O)C(N)=O` [N-Nitroso-N-methylurea], the “GLuc Genotox LEC” value in series [1] (setting [6]) worked out at 8.05 µg/mL. Also, the “test concentration at which the highest relative induction is seen” value in series [2] (FLuc reporter, FIG. 3, 24 hour timeframe) was 32 µg/mL. The “concentrations that cause significant cell death” value in series [2] (TK6 reporter cells, FIG. 3, explains decrease in FLuc signal) is reported as “greater than 32 μg/ml”. For the same molecule, the “concentration at which GADD45α induction (GFP signal) peaks” value in series [4] is recorded as “at least 258 μg/ml”.

Regarding `CC(=O)O[C@H]1C(=O)[C@@]2(C)[C@H]([C@H](OC(=O)c3ccccc3)[C@]3(O)C[C@H](OC(=O)[C@H](O)[C@@H](NC(=O)c4ccccc4)c4ccccc4)C(C)=C1C3(C)C)[C@]1(OC(C)=O)CO[C@@H]1C[C@@H]2O` [Paclitaxel (Taxol), Paclitaxel], the “GLuc Genotox Result” value in series [1] was “+++”. In series [1] (human, 48 h), the “GLuc Genotox LEC” value turned out to be 0.03 µg/mL. Taken in the same sequence, the figures for `CCc1nc(N)nc(N)c1-c1ccc(Cl)cc1` [Pyrimethamine] were “+++” and 0.39 µg/mL. Taken in the same sequence, the figures for `CC[C@]1(O)C[C@H]2CN(CCc3c([nH]c4ccccc34)[C@@](C(=O)OC)(c3cc4c(cc3OC)N(C=O)[C@H]3[C@@](O)(C(=O)OC)[C@H](OC(C)=O)[C@]5(CC)C=CCN6CC[C@]43[C@@H]65)C2)C1` [Vincristine Sulphate] were “+++” and 0.0008 µg/mL.

Regarding `OCCO` [ethylene glycol], the “genotoxicity outcome” value in series [1] (setting [5]) is listed as “correctly identified”.
